Measurements published in ChEMBL document CHEMBL3244076, “N,N'-(Phenylene)dioxamic acids and their esters as antiallergy agents” (1978).

Legend:
Type in all cases: functional
Rattus norvegicus [1] = assay: Antiallergic activity in anti-egg albumin homocytotropic antibody-sensitized Sprague-Dawley rat assessed as inhibition of passive cutaneous anaphylaxis reaction at 50 mg/kg, po administered 120 mins prior to antigen egg albumin challenge
Rattus norvegicus [2] = assay: Antiallergic activity in anti-egg albumin homocytotropic antibody-sensitized Sprague-Dawley rat assessed as inhibition of passive cutaneous anaphylaxis reaction at 50 mg/kg, po administered 60 mins prior to antigen egg albumin challenge
Rattus norvegicus [3] = assay: Antiallergic activity in anti-egg albumin homocytotropic antibody-sensitized Sprague-Dawley rat assessed as inhibition of passive cutaneous anaphylaxis reaction at 50 mg/kg, po administered 20 mins prior to antigen egg albumin challenge
Rattus norvegicus [4] = assay: Antiallergic activity in anti-egg albumin homocytotropic antibody-sensitized Sprague-Dawley rat assessed as time of peak action for inhibition of passive cutaneous anaphylaxis reaction at 50 mg/kg, po administered prior to antigen egg albumin challenge
Rattus norvegicus [5] = assay: Antiallergic activity in anti-egg albumin homocytotropic antibody-sensitized Sprague-Dawley rat assessed as inhibition of passive cutaneous anaphylaxis reaction at 50 mg/kg, po administered 5 mins prior to antigen egg albumin challenge
Rattus norvegicus [6] = assay: Antiallergic activity in po dosed anti-egg albumin homocytotropic antibody-sensitized Sprague-Dawley rat assessed as lowest concentration required for >20% inhibition of passive cutaneous anaphylaxis reaction administered prior to antigen egg albumin challenge
Rattus norvegicus [7] = assay: Antiallergic activity in anti-egg albumin homocytotropic antibody-sensitized Sprague-Dawley rat assessed as inhibition of passive cutaneous anaphylaxis reaction at 10 mg/kg, po administered 60 mins prior to antigen egg albumin challenge
Rattus norvegicus [8] = assay: Antiallergic activity in anti-egg albumin homocytotropic antibody-sensitized Sprague-Dawley rat assessed as inhibition of passive cutaneous anaphylaxis reaction at 10 mg/kg, po administered 20 mins prior to antigen egg albumin challenge
Rattus norvegicus [9] = assay: Antiallergic activity in anti-egg albumin homocytotropic antibody-sensitized Sprague-Dawley rat assessed as inhibition of passive cutaneous anaphylaxis reaction at 10 mg/kg, po administered 5 mins prior to antigen egg albumin challenge
Rattus norvegicus [10] = assay: Antiallergic activity in anti-egg albumin homocytotropic antibody-sensitized Sprague-Dawley rat assessed as inhibition of passive cutaneous anaphylaxis reaction at 1 mg/kg, iv administered at the time of antigen egg albumin challenge
Rattus norvegicus [11] = assay: Antiallergic activity in anti-egg albumin homocytotropic antibody-sensitized Sprague-Dawley rat assessed as inhibition of passive cutaneous anaphylaxis reaction at 0.01 mg/kg, iv administered at the time of antigen egg albumin challenge
Rattus norvegicus [12] = assay: Antiallergic activity in anti-egg albumin homocytotropic antibody-sensitized Sprague-Dawley rat assessed as inhibition of passive cutaneous anaphylaxis reaction at 0.1 mg/kg, iv administered at the time of antigen egg albumin challenge
Rattus norvegicus [13] = assay: Antiallergic activity in anti-egg albumin homocytotropic antibody-sensitized Sprague-Dawley rat assessed as inhibition of passive cutaneous anaphylaxis reaction at 0.001 mg/kg, iv administered at the time of antigen egg albumin challenge
Rattus norvegicus [14] = assay: Antiallergic activity in anti-egg albumin homocytotropic antibody-sensitized Sprague-Dawley rat assessed as inhibition of passive cutaneous anaphylaxis reaction at 50 mg/kg, po administered prior to antigen egg albumin challenge
Rattus norvegicus [15] = assay: Antiallergic activity in iv dosed anti-egg albumin homocytotropic antibody-sensitized Sprague-Dawley rat assessed as inhibition of passive cutaneous anaphylaxis reaction administered at the time of antigen egg albumin challenge
Rattus norvegicus [16] = assay: Ratio of disodium cromoglycate ED50 to compound ED50 for antiallergic activity in iv dosed anti-egg albumin homocytotropic antibody-sensitized Sprague-Dawley rat by passive cutaneous anaphylaxis reaction analysis

With `CCOC(=O)C(=O)Nc1cccc(NC(=O)C(=O)OCC)c1` as the compound, how does the inhibition in vivo at 50 mg/kg (Rattus norvegicus [1]) read?
The inhibition in vivo at 50 mg/kg was 29%.

What about the inhibition in vivo at 50 mg/kg (Rattus norvegicus [2]) of the same compound?
Its inhibition in vivo at 50 mg/kg is 14%.

What about the inhibition in vivo at 50 mg/kg (Rattus norvegicus [3]) of the same compound?
The inhibition in vivo at 50 mg/kg was 94%.

And the Time (Rattus norvegicus [4])?
Its Time is 20 min.

And the inhibition in vivo at 50 mg/kg (Rattus norvegicus [5])?
The inhibition in vivo at 50 mg/kg was 3%.

What about the LED (Rattus norvegicus [6]) of the same compound?
Its LED is 1 mg/kg.

With `CCOC(=O)C(=O)Nc1cccc(NC(=O)C(=O)OCC)c1Cl` as the compound, how does the inhibition in vivo at 50 mg/kg (Rattus norvegicus [2]) read?
The inhibition in vivo at 50 mg/kg was 1.8%.

What about the inhibition in vivo at 50 mg/kg (Rattus norvegicus [3]) of the same compound?
The inhibition in vivo at 50 mg/kg was 17%.

What about the Time (Rattus norvegicus [4]) of the same compound?
Its Time is 5 min.

What about the inhibition in vivo at 50 mg/kg (Rattus norvegicus [5]) of the same compound?
Its inhibition in vivo at 50 mg/kg is 53%.

For `CCOC(=O)C(=O)Nc1ccc(C#N)c(NC(=O)C(=O)OCC)c1`, which inhibition in vivo at 10 mg/kg (Rattus norvegicus [7]) is on record?
The inhibition in vivo at 10 mg/kg was 19%.

What about the inhibition in vivo at 10 mg/kg (Rattus norvegicus [8]) of the same compound?
The inhibition in vivo at 10 mg/kg was 19%.

What about the inhibition in vivo at 10 mg/kg (Rattus norvegicus [9]) of the same compound?
The inhibition in vivo at 10 mg/kg was 7%.

What does the source list for `CCOC(=O)C(=O)Nc1cc(C#N)cc(NC(=O)C(=O)OCC)c1`?
inhibition in vivo at 10 mg/kg (Rattus norvegicus [7]): 0%; inhibition in vivo at 10 mg/kg (Rattus norvegicus [8]): 25%; inhibition in vivo at 10 mg/kg (Rattus norvegicus [9]): 95%

What does the source list for `Cc1cc(NC(=O)C(=O)O)c(Cl)c(NC(=O)C(=O)O)c1`?
inhibition in vivo at 1 mg/kg (Rattus norvegicus [10]): 100%; inhibition in vivo at 0.01 mg/kg (Rattus norvegicus [11]): 20%; inhibition in vivo at 0.1 mg/kg (Rattus norvegicus [12]): 91%; inhibition in vivo at 0.001 mg/kg (Rattus norvegicus [13]): 2%

How did the inhibition in vivo at 0.01 mg/kg (Rattus norvegicus [11]) turn out when `O=C(O)C(=O)Nc1cc(C(F)(F)F)cc(NC(=O)C(=O)O)c1Cl` was run?
Its inhibition in vivo at 0.01 mg/kg is 90%.

And the inhibition in vivo at 0.1 mg/kg (Rattus norvegicus [12])?
The inhibition in vivo at 0.1 mg/kg was 100%.

And the inhibition in vivo at 0.001 mg/kg (Rattus norvegicus [13])?
The inhibition in vivo at 0.001 mg/kg was 0%.

How did the inhibition in vivo at 1 mg/kg (Rattus norvegicus [10]) turn out when `N#Cc1cc(NC(=O)C(=O)O)cc(NC(=O)C(=O)O)c1Cl` was run?
Its inhibition in vivo at 1 mg/kg is 100%.

What about the inhibition in vivo at 0.01 mg/kg (Rattus norvegicus [11]) of the same compound?
The inhibition in vivo at 0.01 mg/kg was 20%.

And the inhibition in vivo at 0.1 mg/kg (Rattus norvegicus [12])?
The inhibition in vivo at 0.1 mg/kg was 100%.

What about the inhibition in vivo at 0.001 mg/kg (Rattus norvegicus [13]) of the same compound?
The inhibition in vivo at 0.001 mg/kg was 0%.

`CCCCOC(=O)C(=O)Nc1cc(C#N)cc(NC(=O)C(=O)OCCCC)c1Cl` was tested. Which Time (Rattus norvegicus [4]) did it give?
Its Time is 5 min.

And the inhibition in vivo at 50 mg/kg (Rattus norvegicus [14])?
The inhibition in vivo at 50 mg/kg was 100%.

What does the source list for `CCCCCCOC(=O)C(=O)Nc1cc(C#N)cc(NC(=O)C(=O)OCCCCCC)c1Cl`?
Time (Rattus norvegicus [4]): 5 min; inhibition in vivo at 50 mg/kg (Rattus norvegicus [14]): 51%

What does the source list for `N#Cc1cc(NC(=O)C(=O)OC23CC4CC(CC(C4)C2)C3)c(Cl)c(NC(=O)C(=O)OC23CC4CC(CC(C4)C2)C3)c1`?
Time (Rattus norvegicus [4]): 60 min; inhibition in vivo at 50 mg/kg (Rattus norvegicus [14]): 50%

Which ED50 (Rattus norvegicus [15]) does the source give for `O=C([O-])c1cc(=O)c2c(OCC(O)COc3cccc4oc(C(=O)[O-])cc(=O)c34)cccc2o1.[Na+].[Na+]` [CROMOLYN SODIUM] here?
Its ED50 is 2.5 mg/kg.

Which results are given for `CCOC(=O)C(=O)Nc1cc(C#N)cc(NC(=O)C(=O)OCC)c1Cl` [LODOXAMIDE ETHYL]?
inhibition in vivo at 50 mg/kg (Rattus norvegicus [2]): 0%; inhibition in vivo at 50 mg/kg (Rattus norvegicus [3]): 31%; Time (Rattus norvegicus [4]): 5 min; inhibition in vivo at 50 mg/kg (Rattus norvegicus [5]): 100%; LED (Rattus norvegicus [6]): 0.1 mg/kg

With `N#Cc1cc(NC(=O)C(=O)O)c(Cl)c(NC(=O)C(=O)O)c1` [LODOXAMIDE] as the compound, how does the “Ratio ED50” value (Rattus norvegicus [16]) read?
The value was 2500.

What about the inhibition in vivo at 0.01 mg/kg (Rattus norvegicus [11]) of the same compound?
The inhibition in vivo at 0.01 mg/kg was 94%.

And the inhibition in vivo at 0.001 mg/kg (Rattus norvegicus [13])?
The inhibition in vivo at 0.001 mg/kg was 50%.
